Among the data in patent US20130053382A1, “Inhibitors of Phosphoinositide Dependent Kinase 1 (PDK1)” (priority 2010, published 2013) are IC50 values, retold here.

Structures can show the parent of a compound that is named as a salt.

For this assay, the target named is T1, recombinant human PDK1 (Homo sapiens, UniProt O15530).
T1 construct: containing amino acids 51-556 of the human PDK1 enzyme; made in house; host or cells: Sf9 insect cells
T1 sequence (O15530 51-556): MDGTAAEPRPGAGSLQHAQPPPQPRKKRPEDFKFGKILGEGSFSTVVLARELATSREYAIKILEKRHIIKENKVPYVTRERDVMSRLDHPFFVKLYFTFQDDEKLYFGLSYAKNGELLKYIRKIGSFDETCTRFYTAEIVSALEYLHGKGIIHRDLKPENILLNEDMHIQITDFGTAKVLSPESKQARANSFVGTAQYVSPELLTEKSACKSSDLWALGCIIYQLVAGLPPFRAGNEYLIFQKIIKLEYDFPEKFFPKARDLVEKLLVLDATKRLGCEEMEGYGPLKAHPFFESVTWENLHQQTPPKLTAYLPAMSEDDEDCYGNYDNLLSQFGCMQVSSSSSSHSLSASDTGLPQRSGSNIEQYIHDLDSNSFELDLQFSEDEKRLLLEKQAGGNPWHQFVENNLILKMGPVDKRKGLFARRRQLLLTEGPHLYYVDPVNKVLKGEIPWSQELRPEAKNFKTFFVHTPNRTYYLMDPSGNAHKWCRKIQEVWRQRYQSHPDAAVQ
Description: PDK1 IMAP fluorescence polarization kinase assay. The format is biochemical. The settings on record: 10 nM PDK1, 100 nM peptide substrate, 100 nM PIFtide, 2.5 uM ATP, 1.5 hours.
Consider `NC1(c2ccc(-c3cc4cn[nH]c4cc3NC(=O)c3csc(-c4cc(C(F)(F)F)n[nH]4)n3)cc2)CC1` [Compound 1-18, N-(5-(4-(1-aminocyclopropyl)phenyl)-1H-indazol-6-yl)-2-(3-(trifluoromethyl)-1H-pyrazol-5-yl)thiazole-4-carboxamide], for which the IC50 (as a rule, the midpoint of a concentration-inhibition curve) came to 1860 nM.
As for `O=C(Nc1cc2[nH]ncc2cc1-c1cccc(CN2CCCC2)c1)c1csc(-c2cc(C(F)(F)F)n[nH]2)n1` [Compound 1-11, N-(5-(3-(pyrrolidin-1-ylmethyl)phenyl)-1H-indazol-6-yl)-2-(3-(trifluoromethyl)-1H-pyrazol-5-yl)thiazole-4-carboxamide], the figure is 33 nM.
Regarding `Cc1cc(CN)ccc1-c1cc2cn[nH]c2cc1NC(=O)c1csc(-c2cc(C(F)(F)F)n[nH]2)n1` [Compound 4-6, N-(5-(4-(aminomethyl)-2-methylphenyl)-1H-indazol-6-yl)-2-(3-(trifluoromethyl)-1H-pyrazol-5-yl)thiazole-4-carboxamide], the 50% inhibitory concentration (IC50) stood at 108 nM.
In the case of `O=C(Nc1cc2[nH]ncc2cc1-c1cccc(CN2CCCCC2)c1)c1csc(-c2cc(C(F)(F)F)n[nH]2)n1` [Compound 3-5, N-(5-(3-(piperidin-1-ylmethyl)phenyl)-1H-indazol-6-yl)-2-(3-(trifluoromethyl)-1H-pyrazol-5-yl)thiazole-4-carboxamide hydrochloride] it was 170 nM.
`Cc1cc(-c2nc(C(=O)Nc3cc4[nH]ncc4cc3-c3ccc4c(c3)CNC4)cs2)[nH]n1` [Compound 5-7, N-(5-(isoindolin-5-yl)-1H-indazol-6-yl)-2-(3-methyl-1H-pyrazol-5-yl)thiazole-4-carboxamide]: the half-inhibitory concentration (IC50) was 85 nM.
